The values below come from US12250947B2, “Substituted azaspiro-cycles as herbicides” (SYNGENTA CROP PROTECTION AG, priority 2019, dated 2025).

Holding throughout (type): in vivo
One series deals with barley crop plants. Kind of series: Crop phytotoxicity comparison, post-emergence, barley. On the procedure:
(§1) Seeds of a variety of test species are sown in standard soil in pots (Lolium perenne (LOLPE), Setaria faberi (SETFA), Alopecurus myosuroides (ALOMY), Echinochloa crus-galli (ECHCG), Avena fatua (AVEFA)). After cultivation for one day (pre-emergence) or after 8 days cultivation (post-emergence) under controlled conditions in a glasshouse (at 24/16° C., day/night; 14 hours light; 65% humidity), the plants are sprayed with an aqueous spray solution derived from the formulation of the technical active ingredient in acetone/water (50:50) solution containing 0.5% Tween 20 (polyoxyethelyene sorbitan monolaurate, CAS RN 9005-64-5). Compounds are applied at 250 g/h. The test plants are then grown in a glasshouse under controlled conditions in a glasshouse (at 24/16° C., day/night; 14 hours light; 65% humidity) and watered twice daily. After 13 days for pre and post-emergence, the test is evaluated for the percentage damage caused to the plant. The biological activities are shown in the following table on a five-point scale (5=80-100%; 4=60-79%; 3=40-59%; 2=20-39%; 1=0-19%). NT=not tested.
(§2) Using procedures outlines above, wheat and barley crop plants are treated, post-emergence with compounds A1 or A4 of the present invention or comparator compound C1 (Compound A-38 from WO2014/096289) at the application rates indicated. The compounds were also applied in conjunction with the safener compound cloquintocet-mexyl (CQC) at 50 g/ha.

The test system of series [1] is Alopecurus myosuroides (ALOMY). Kind of series: Herbicidal glasshouse test, post-emergence, ALOMY. The conditions noted are these: 250 g/Ha, evaluated after 13 days. On the procedure:
(§3) Seeds of a variety of test species are sown in standard soil in pots (Lolium perenne (LOLPE), Setaria faberi (SETFA), Alopecurus myosuroides (ALOMY), Echinochloa crus-galli (ECHCG), Avena fatua (AVEFA)). […] Compounds are applied at 250 g/h. The test plants are then grown in a glasshouse under controlled conditions in a glasshouse (at 24/16° C., day/night; 14 hours light; 65% humidity) and watered twice daily. After 13 days for pre and post-emergence, the test is evaluated for the percentage damage caused to the plant. […] NT=not tested.

Series [2] concerns Echinochloa crus-galli (ECHCG). Kind of series: Herbicidal glasshouse test, pre-emergence, ECHCG. Particulars: 250 g/Ha, evaluated after 13 days. On the procedure: as §3
The subject of series [3] is Lolium perenne (LOLPE). Kind of series: Herbicidal glasshouse test, pre-emergence, LOLPE. Particulars: 250 g/Ha, evaluated after 13 days. As to the method:
as §3

In another series the test system is wheat crop plants. Description: Crop phytotoxicity comparison, post-emergence, wheat. The conditions noted are these: for damage to the wheat and barley crops compared to prior art compound C1: summary of Table B3. On the procedure: as §1, §2
The test system of series [4] is Avena fatua (AVEFA). Description: Herbicidal glasshouse test, pre-emergence, AVEFA. The conditions noted are these: 250 g/Ha, evaluated after 13 days. On the procedure:
as §3

Series [5] deals with Lolium perenne (LOLPE). Description: Herbicidal glasshouse test, post-emergence, LOLPE. The conditions noted are these: 250 g/Ha, evaluated after 13 days. As to the method: as §3
Series [6] concerns Setaria faberi (SETFA). Description: Herbicidal glasshouse test, post-emergence, SETFA. The conditions noted are these: 250 g/Ha, evaluated after 13 days. As to the method:
as §3

In series [7] the test system is Alopecurus myosuroides (ALOMY). Kind of series: Herbicidal glasshouse test, pre-emergence, ALOMY. The conditions noted are these: 250 g/Ha, evaluated after 13 days. As to the method:
as §3

Series [8] has as its system Avena fatua (AVEFA). Kind of series: Herbicidal glasshouse test, post-emergence, AVEFA. Particulars: 250 g/Ha, evaluated after 13 days. As to the method:
as §3

Series [9] concerns Setaria faberi (SETFA). Kind of series: Herbicidal glasshouse test, pre-emergence, SETFA. Particulars: 250 g/Ha, evaluated after 13 days. As to the method:
as §3

The subject of series [10] is Echinochloa crus-galli (ECHCG). Kind of series: Herbicidal glasshouse test, post-emergence, ECHCG. The conditions noted are these: 250 g/Ha, evaluated after 13 days. As to the method: as §3
The mark [11] stands for this setting: rate 60 g/ha + safener cloquintocet-mexyl (CQC) at 50 g/ha.

With `CC#Cc1cc(C)c(C2C(=O)CC3(CCN(C(=O)C(C)=O)CC3)CC2=O)c(C)c1` [Compound A1, 9-(2,6-dimethyl-4-prop-1-ynyl-phenyl)-3-(2-oxopropanoyl)-3-azaspiro[5.5]undecane-8,10-dione], the “% phytotoxicity observed, Barley” value in the series with barley crop plants (rate 30 g/ha) and with barley crop plants (rate 60 g/ha) was 0% throughout. Moreover, the “percentage damage caused to the plant, five-point scale, ALOMY” value in series [1] and in series [7] was 5 (5=80-100%) in each case. Also, the “percentage damage caused to the plant, five-point scale, ECHCG” value in [2] and in series [10] was 5 (5=80-100%) throughout. For the same molecule, the “percentage damage caused to the plant, five-point scale, LOLPE” value with Lolium perenne (LOLPE) [3] and in the series with Lolium perenne (LOLPE) [5] was 5 (5=80-100%) each time. The “% phytotoxicity observed, Wheat” value came out at 0% in the series with wheat crop plants (rate 30 g/ha), 10% in the series on wheat crop plants (rate 60 g/ha) and 0% in the series on wheat crop plants (setting [11]). In the series on wheat crop plants, the “damage to the wheat and barley crops compared to prior art compound C1” value is “significantly less damaging”. The “percentage damage caused to the plant, five-point scale, AVEFA” value in the series on Avena fatua (AVEFA) [4] and with Avena fatua (AVEFA) [8] was 5 (5=80-100%) throughout. In addition, the “percentage damage caused to the plant, five-point scale, SETFA” value with Setaria faberi (SETFA) [6] and in the series on Setaria faberi (SETFA) [9] was 5 (5=80-100%) throughout.

Turning to `CC#Cc1cc(C)c(C2C(=O)CC3(CCN(C(=O)C(=O)C(F)(F)F)CC3)CC2=O)c(C)c1` [Compound A3], the “percentage damage caused to the plant, five-point scale, ALOMY” value in series [1] and in [7] was 5 (5=80-100%) each time. In addition, the “percentage damage caused to the plant, five-point scale, ECHCG” value in [2] and in series [10] was 5 (5=80-100%) each time. In addition, the “percentage damage caused to the plant, five-point scale, LOLPE” value in the series with Lolium perenne (LOLPE) [3] and with Lolium perenne (LOLPE) [5] was 5 (5=80-100%) throughout. Also, the “damage to the wheat and barley crops compared to prior art compound C1” value in the series on wheat crop plants is given as “significantly less damaging”. Also, the results for the “percentage damage caused to the plant, five-point scale, AVEFA” value in the series with Avena fatua (AVEFA) [4] and with Avena fatua (AVEFA) [8] were 4 (4=60-79%) and 5 (5=80-100%), respectively. The “percentage damage caused to the plant, five-point scale, SETFA” value with Setaria faberi (SETFA) [6] and in the series with Setaria faberi (SETFA) [9] was 5 (5=80-100%) throughout.

With `CC#Cc1cc(C)c(C2C(=O)CC3(CCOCC3)CC2=O)c(C)c1` [Compound C1, reference compound], the “% phytotoxicity observed, Barley” value in the series with barley crop plants (rate 30 g/ha) stood at 80%; with barley crop plants (rate 60 g/ha), 90%. In addition, the entries for the “% phytotoxicity observed, Wheat” value in the series on wheat crop plants (rate 30 g/ha), with wheat crop plants (rate 60 g/ha) and with wheat crop plants (setting [11]) were 40%, 70% and 60%, respectively.
